Reference: patent publication US6576662B2, “Compounds having anticancer activity : process for their preparation and pharmaceutical compositions containing them” (Dr. Reddy's Laboratories Limited, priority 2000, dated 2003)

Key:
HIV-1/MN = test: Anti HIV activity, P24 antigen in infected PM-1 cells; type: cell-based; details: Concentration 1 μM; PM-1 cells infected with HIV-1/MN, 96 h; P24 antigen corrected by MTT
Procedure: Human CD4+T cell line PM-1 used in the assay was cultured in RPMI-1640 medium containing 10% Fetal bovine serum, 2 g/L sodium bicarbonate, 100,000 units/L Penicillin-G and 100 mg/L streptomycin. Healthy PM-1 cells were plated on the first day in a 96 well plate at […]. After 24 h HIV-1/MN was added to the culture and incubated for 2 h for infection. Cells were washed twice with PBS to remove the virus in the culture. Different concentrations of DRF compounds ranging from 10^−4 to 10^−8M were added to the culture and incubated for 96 h. The viability of cells was then assessed by standard MTT assay and the viral antigen P24 levels were estimated by ELSA method. Based on the MTT assay values the P 24 antigen values were corrected. All the samples were tested in triplicates and the average was used for calculations. AZT was used as standard compound for comparision.

KB = KB cells; cited from earlier work
[1] = tested on: P388 lymphocytic leukemia; details: P388 cells; cited from earlier work
SW-620 = test: in vitro anti-cancer screen, Sulforhodamine B method; type: cell-based, human; details: COLON: SW-620; 48 h incubation; read-out: GROWTH INHIBITION (GI 50)
Procedure: (§1) Each test compound was screened against a battery of cell lines representing eight different types of cancers. In a typical procedure, 1×10^4 cells were seeded into each well of 96 well plate in 100 μL volume of RPMI 1640 medium containing antibiotics and 10% FCS.
(§2) The plates were incubated at 37° C. in presence of CO2. After 24 h, test compounds were evaluated at five 10 fold dilutions ranging from 100 to 0.01 μM. To each test well 100 μL of test compound solution was added and medium with vehicle was added to control wells and the plates were further incubated. After 48 h of incubation, plates were terminated by Sulforhodamine B method.
(§3) The optical density which is proportional to protein mass, is then-read by automated spectrophotometric plate reader at a wavelength of 515 nm.

U251 = test: as above; type: cell-based, human; details: CNS: U251; 48 h incubation; read-out: GROWTH INHIBITION (GI 50)
Procedure: as §1, §2, §3

M14 = test: as above; type: cell-based, human; details: MELANOMA: M14; 48 h incubation; read-out: GROWTH INHIBITION (GI 50)
Procedure: as §1, §2, §3

H522 = test: as above; type: cell-based, human; details: LUNG: H522; 48 h incubation; read-out: GROWTH INHIBITION (GI 50)
Procedure: as §1, §2, §3

MCF-7/ADR = test: as above; type: cell-based, human; details: BREAST: MCF-7/ADR; 48 h incubation; read-out: GROWTH INHIBITION (GI 50)
Procedure: as §1, §2, §3

A498 = test: as above; type: cell-based, human; details: RENAL: A498; 48 h incubation; read-out: GROWTH INHIBITION (GI 50)
Procedure: as §1, §2, §3

DU145 = test: as above; type: cell-based, human; details: PROSTATE: DU145; 48 h incubation; read-out: GROWTH INHIBITION (GI 50)
Procedure: as §1, §2, §3

SKOV-3 = test: as above; type: cell-based, human; details: OVARIAN: SKOV-3; 48 h incubation; read-out: GROWTH INHIBITION (GI 50)
Procedure: as §1, §2, §3

Human lymphocytes = test: Lymphocyte proliferation, tritiated thymidine incorporation; type: cell-based; details: Concentration 1 μM; human lymphocytes with Phytohemagglutitin A
Procedure: Human lymphocytes were isolated from whole blood by using Ficoll Hypaque Plus (Amersham). On day one, 1 million lymphocytes were seeded into each well of 96 well plate in 100 μL volume of RPMI 1640 medium containing 10% FCS and Phytohemagglutitin A at 1 μg/well concentration. Plates were incubated at 37° C. in CO2 incubator for 24 h. Test compounds at various concentrations were added to test wells and only medium with vehicle was added to control wells. After 48 h of incubation […] of tritiated thymidine was added to each well. After 24 h of thymidine addition the cells were harvested and the incorporated radioactivity was determined. Stimulation Index (SI) was calculated using the formula, [formula]
A^T=Average CPM of treated wells,
A^C=Average CPM of control wells.

HIV-1(IIIB) = details: cited from earlier work

**Q.** With Cc1cn([C@H]2C[C@H](N=[N+]=[N-])[C@@H](CO)O2)c(=O)[nH]c1=O [AZT, reference compound] as the compound, how does the “Percentage Inhibition” value (HIV-1/MN) read?
**A.** 72.47

**Q.** Which results are given for C=C1CC[C@@H]2[C@](C)(CO)[C@H](O)CC[C@@]2(C)[C@@H]1C/C=C1/C(=O)OC[C@H]1O [Andrographolide]?
**A.** cytotoxic activity (KB): potent cytotoxic activity; cytotoxic activity [1]: potent cytotoxic activity

**Q.** With C=C1CCC2C(C)(COC(C)=O)C(OC(C)=O)CCC2(C)C1CC(NCc1ccccc1)C1=CCOC1=O (centres unmarked) [Example 1, 3,19-Diacetyl-12-(N-benzylamino)-14-deoxy andrographolide] as the compound, how does the “Percentage Inhibition” value (HIV-1/MN) read?
**A.** 73.94

**Q.** What about the GI50 (SW-620) of the same compound?
**A.** 4 µM

**Q.** What about the GI50 (U251) of the same compound?
**A.** 0.2 µM

**Q.** And the GI50 (M14)?
**A.** 5 µM

**Q.** And the GI50 (H522)?
**A.** 9 µM

**Q.** And the GI50 (MCF-7/ADR)?
**A.** 8 µM

**Q.** What about the GI50 (A498) of the same compound?
**A.** 5 µM

**Q.** What about the GI50 (DU145) of the same compound?
**A.** 7 µM

**Q.** What about the GI50 (SKOV-3) of the same compound?
**A.** 0.3 µM

**Q.** What about the “Stimulation Index (SI)” value (Human lymphocytes) of the same compound?
**A.** 123

**Q.** With “dehydroandrographolide succinic acid monoester [DASM]” as the compound, how does the “minimal concentration inhibitory to HIV-1(IIIB)” value (HIV-1(IIIB)) read?
**A.** 1.6 to 3.1 µg/mL
